Assay results as given in ChEMBL document CHEMBL1177794, “Broad spectrum alkynyl inhibitors of T315I Bcr-Abl” (Bioorg Med Chem Lett, 2010).

How the values were obtained:
[1] = target: AP2-associated protein kinase 1 (Homo sapiens) (UniProt Q2M2I8); experiment: Inhibition of AAK1 at 10 uM; conditions: values are per cent of control
[2] = test system: Tyrosine-protein kinase ABL1 (Homo sapiens), P00519 [E255K]; experiment: Inhibition of phosphorylated ABL1 E255K mutant at 10 uM; conditions: values are per cent of control
[3] = test system: Tyrosine-protein kinase ABL1 (Homo sapiens), P00519 [F317L]; experiment: Inhibition of non phosphorylated ABL1 F317L mutant at 10 uM; conditions: values are per cent of control
[4] = target: Tyrosine-protein kinase ABL1 (Homo sapiens) (UniProt P00519); experiment: Inhibition of phosphorylated ABL1 at 10 uM; conditions: values are per cent of control
[5] = target: RAC-alpha serine/threonine-protein kinase (Homo sapiens) (UniProt P31749); experiment: Inhibition of AKT1 at 10 uM; conditions: values are per cent of control
[6] = target: Casein kinase II subunit alpha' (Homo sapiens) (UniProt P19784); experiment: Inhibition of CSNK2A2 at 10 uM; conditions: values are per cent of control
[7] = target: Dual specificity tyrosine-phosphorylation-regulated kinase 1B (Homo sapiens) (UniProt Q9Y463); experiment: Inhibition of DYRK1B at 10 uM; conditions: values are per cent of control
[8] = target: Ephrin type-B receptor 3 (Homo sapiens) (UniProt P54753); experiment: Inhibition of EPHB3 at 10 uM; conditions: values are per cent of control
[9] = test system: Fibroblast growth factor receptor 3 (Homo sapiens), P22607 [G697C]; experiment: Inhibition of FGFR3 G697C mutant at 10 uM; conditions: values are per cent of control
[10] = target: Tyrosine-protein kinase HCK (Homo sapiens) (UniProt P08631); experiment: Inhibition of HCK at 10 uM; conditions: values are per cent of control
[11] = test system: Mast/stem cell growth factor receptor Kit (Homo sapiens), P10721 [A829P]; experiment: Inhibition of KIT A829P mutant at 10 uM; conditions: values are per cent of control
[12] = test system: Mast/stem cell growth factor receptor Kit (Homo sapiens), P10721 [L576P]; experiment: Inhibition of KIT L576P mutant at 10 uM; conditions: values are per cent of control
[13] = target: Dual specificity mitogen-activated protein kinase kinase 4 (Homo sapiens) (UniProt P45985); experiment: Inhibition of MEK4 at 10 uM; conditions: values are per cent of control
[14] = target: MAP kinase-interacting serine/threonine-protein kinase 2 (Homo sapiens) (UniProt Q9HBH9); experiment: Inhibition of MKNK2 at 10 uM
[15] = target: Serine/threonine-protein kinase MRCK alpha (Homo sapiens) (UniProt Q5VT25); experiment: Inhibition of MRCKA at 10 uM
[16] = target: Tyrosine-protein kinase Srms (Homo sapiens) (UniProt Q9H3Y6); experiment: Inhibition of SRMS at 10 uM
[17] = target: Serine/threonine-protein kinase 36 (Homo sapiens) (UniProt Q9NRP7); experiment: Inhibition of STK36 at 10 uM
[18] = target: Serine/threonine-protein kinase ULK1 (Homo sapiens) (UniProt O75385); experiment: Inhibition of ULK1 at 10 uM; conditions: values are per cent of control
[19] = target: Serine/threonine-protein kinase 32B (Homo sapiens) (UniProt Q9NY57); experiment: Inhibition of YANK2 at 10 uM; conditions: values are per cent of control
[20] = target: Serine/threonine-protein kinase 32C (Homo sapiens) (UniProt Q86UX6); experiment: Inhibition of YANK3 at 10 uM; conditions: values are per cent of control
[21] = target: Mitogen-activated protein kinase kinase kinase 19 (Homo sapiens) (UniProt Q56UN5); experiment: Inhibition of YSK4 at 10 uM; conditions: values are per cent of control
[22] = target: Mitogen-activated protein kinase kinase kinase 20 (Homo sapiens) (UniProt Q9NYL2); experiment: Inhibition of ZAK at 10 uM; conditions: values are per cent of control
[23] = test system: Phosphatidylinositol 4,5-bisphosphate 3-kinase catalytic subunit alpha isoform (Homo sapiens), P42336 [H1047L]; experiment: Inhibition of PIK3CA H1047L mutant at 10 uM
[24] = target: Phosphatidylinositol 4,5-bisphosphate 3-kinase catalytic subunit beta isoform (Homo sapiens) (UniProt P42338); experiment: Inhibition of PIK3CB at 10 uM
[25] = target: Phosphatidylinositol 4,5-bisphosphate 3-kinase catalytic subunit delta isoform (Homo sapiens) (UniProt O00329); experiment: Inhibition of PIK3CD at 10 uM
[26] = target: Serine/threonine-protein kinase pim-2 (Homo sapiens) (UniProt Q9P1W9); experiment: Inhibition of PIM2 at 10 uM
[27] = target: Phosphatidylinositol 5-phosphate 4-kinase type-2 beta (Homo sapiens) (UniProt P78356); experiment: Inhibition of PIP5K2B at 10 uM
[28] = target: Protein kinase C eta type (Homo sapiens) (UniProt P24723); experiment: Inhibition of PRKCH at 10 uM
[29] = target: Ribosomal protein S6 kinase alpha-2 (Homo sapiens) (UniProt Q15349); experiment: Inhibition of RSK3 C-terminal domain2 at 10 uM
[30] = target: Ribosomal protein S6 kinase alpha-6 (Homo sapiens) (UniProt Q9UK32); experiment: Inhibition of RSK4 C-terminal domain2 at 10 uM
[31] = target: Serine/threonine-protein kinase SIK2 (Homo sapiens) (UniProt Q9H0K1); experiment: Inhibition of SIK2 at 10 uM
[32] = target: Tyrosine-protein kinase BTK (Homo sapiens) (UniProt Q06187); experiment: Inhibition of BTK at 10 uM; values are per cent of control
[33] = target: Serine/threonine-protein kinase SIK1 (Homo sapiens) (UniProt P57059); experiment: Inhibition of SIK at 10 uM; values are per cent of control
[34] = target: Cyclin-dependent kinase 8 (Homo sapiens) (UniProt P49336); experiment: Inhibition of CDK8 at 10 uM; values are per cent of control
[35] = target: Epithelial discoidin domain-containing receptor 1 (Homo sapiens) (UniProt Q08345); experiment: Inhibition of DDR1 at 10 uM; values are per cent of control
[36] = target: Serine/threonine-protein kinase PAK 3 (Homo sapiens) (UniProt O75914); experiment: Inhibition of PAK3 at 10 uM; values are per cent of control
[37] = target: Mitogen-activated protein kinase kinase kinase 7 (Homo sapiens) (UniProt O43318); experiment: Inhibition of TAK1 at 10 uM; values are per cent of control
[38] = target: Angiopoietin-1 receptor (Homo sapiens) (UniProt Q02763); experiment: Inhibition of TIE2 at 10 uM; values are per cent of control
[39] = target: High affinity nerve growth factor receptor (Homo sapiens) (UniProt P04629); experiment: Inhibition of TRKA at 10 uM; values are per cent of control
[40] = target: Serine/threonine-protein kinase 17A (Homo sapiens) (UniProt Q9UEE5); experiment: Inhibition of DRAK1 at 10 uM; values are per cent of control
[41] = target: Receptor tyrosine-protein kinase erbB-2 (Homo sapiens) (UniProt P04626); experiment: Inhibition of ERBB2 at 10 uM; values are per cent of control

Tyrosine-protein kinase ABL1 (Homo sapiens), P00519 [E255K], sequence (P00519 whole entry E255K): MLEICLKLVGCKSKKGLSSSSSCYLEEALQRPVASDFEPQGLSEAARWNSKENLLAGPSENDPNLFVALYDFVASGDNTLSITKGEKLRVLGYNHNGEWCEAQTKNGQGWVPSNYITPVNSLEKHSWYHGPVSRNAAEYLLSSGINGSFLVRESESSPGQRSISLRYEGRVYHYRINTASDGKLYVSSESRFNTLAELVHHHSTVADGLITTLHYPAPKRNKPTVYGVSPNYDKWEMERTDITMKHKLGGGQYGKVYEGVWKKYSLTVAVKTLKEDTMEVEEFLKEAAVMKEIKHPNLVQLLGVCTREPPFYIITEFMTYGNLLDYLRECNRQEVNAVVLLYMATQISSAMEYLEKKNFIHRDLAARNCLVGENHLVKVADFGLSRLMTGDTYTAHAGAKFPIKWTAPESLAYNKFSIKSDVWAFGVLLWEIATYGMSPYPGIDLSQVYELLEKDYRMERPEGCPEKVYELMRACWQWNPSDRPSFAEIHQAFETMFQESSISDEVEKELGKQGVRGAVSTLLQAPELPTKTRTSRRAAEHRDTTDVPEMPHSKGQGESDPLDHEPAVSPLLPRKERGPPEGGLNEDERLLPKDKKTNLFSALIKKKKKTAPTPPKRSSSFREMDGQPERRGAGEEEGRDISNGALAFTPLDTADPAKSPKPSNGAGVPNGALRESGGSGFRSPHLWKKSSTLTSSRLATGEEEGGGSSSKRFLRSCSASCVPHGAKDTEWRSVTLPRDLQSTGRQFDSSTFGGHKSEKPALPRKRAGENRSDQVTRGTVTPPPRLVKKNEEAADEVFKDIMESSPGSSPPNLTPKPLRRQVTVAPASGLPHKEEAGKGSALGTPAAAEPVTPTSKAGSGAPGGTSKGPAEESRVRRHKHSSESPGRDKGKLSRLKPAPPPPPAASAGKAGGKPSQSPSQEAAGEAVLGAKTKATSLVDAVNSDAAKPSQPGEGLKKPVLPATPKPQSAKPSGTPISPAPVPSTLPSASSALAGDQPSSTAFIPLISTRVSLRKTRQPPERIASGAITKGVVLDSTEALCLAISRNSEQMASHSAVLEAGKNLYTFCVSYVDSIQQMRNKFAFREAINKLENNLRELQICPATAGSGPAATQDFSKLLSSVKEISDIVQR
Serine/threonine-protein kinase SIK1 (Homo sapiens), sequence (P57059 whole entry): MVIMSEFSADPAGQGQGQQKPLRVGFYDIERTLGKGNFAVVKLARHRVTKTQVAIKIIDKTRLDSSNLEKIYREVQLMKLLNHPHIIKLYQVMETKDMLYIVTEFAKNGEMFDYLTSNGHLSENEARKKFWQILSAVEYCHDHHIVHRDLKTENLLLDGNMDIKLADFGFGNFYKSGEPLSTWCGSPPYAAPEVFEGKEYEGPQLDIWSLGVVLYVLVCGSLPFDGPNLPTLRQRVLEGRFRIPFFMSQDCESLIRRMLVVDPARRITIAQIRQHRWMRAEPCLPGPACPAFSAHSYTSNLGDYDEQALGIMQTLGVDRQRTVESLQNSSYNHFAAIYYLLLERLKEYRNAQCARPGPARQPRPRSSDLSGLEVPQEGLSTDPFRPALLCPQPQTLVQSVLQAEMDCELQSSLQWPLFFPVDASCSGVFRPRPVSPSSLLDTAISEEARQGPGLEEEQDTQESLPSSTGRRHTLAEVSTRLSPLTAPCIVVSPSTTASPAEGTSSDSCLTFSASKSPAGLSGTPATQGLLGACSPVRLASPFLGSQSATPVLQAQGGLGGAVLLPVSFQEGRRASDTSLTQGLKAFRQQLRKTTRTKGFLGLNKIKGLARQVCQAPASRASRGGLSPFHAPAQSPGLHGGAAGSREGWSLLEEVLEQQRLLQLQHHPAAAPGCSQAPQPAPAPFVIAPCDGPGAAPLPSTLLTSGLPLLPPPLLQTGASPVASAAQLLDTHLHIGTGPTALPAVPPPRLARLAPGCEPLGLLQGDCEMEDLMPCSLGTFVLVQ
Ephrin type-B receptor 3 (Homo sapiens), sequence (P54753 whole entry): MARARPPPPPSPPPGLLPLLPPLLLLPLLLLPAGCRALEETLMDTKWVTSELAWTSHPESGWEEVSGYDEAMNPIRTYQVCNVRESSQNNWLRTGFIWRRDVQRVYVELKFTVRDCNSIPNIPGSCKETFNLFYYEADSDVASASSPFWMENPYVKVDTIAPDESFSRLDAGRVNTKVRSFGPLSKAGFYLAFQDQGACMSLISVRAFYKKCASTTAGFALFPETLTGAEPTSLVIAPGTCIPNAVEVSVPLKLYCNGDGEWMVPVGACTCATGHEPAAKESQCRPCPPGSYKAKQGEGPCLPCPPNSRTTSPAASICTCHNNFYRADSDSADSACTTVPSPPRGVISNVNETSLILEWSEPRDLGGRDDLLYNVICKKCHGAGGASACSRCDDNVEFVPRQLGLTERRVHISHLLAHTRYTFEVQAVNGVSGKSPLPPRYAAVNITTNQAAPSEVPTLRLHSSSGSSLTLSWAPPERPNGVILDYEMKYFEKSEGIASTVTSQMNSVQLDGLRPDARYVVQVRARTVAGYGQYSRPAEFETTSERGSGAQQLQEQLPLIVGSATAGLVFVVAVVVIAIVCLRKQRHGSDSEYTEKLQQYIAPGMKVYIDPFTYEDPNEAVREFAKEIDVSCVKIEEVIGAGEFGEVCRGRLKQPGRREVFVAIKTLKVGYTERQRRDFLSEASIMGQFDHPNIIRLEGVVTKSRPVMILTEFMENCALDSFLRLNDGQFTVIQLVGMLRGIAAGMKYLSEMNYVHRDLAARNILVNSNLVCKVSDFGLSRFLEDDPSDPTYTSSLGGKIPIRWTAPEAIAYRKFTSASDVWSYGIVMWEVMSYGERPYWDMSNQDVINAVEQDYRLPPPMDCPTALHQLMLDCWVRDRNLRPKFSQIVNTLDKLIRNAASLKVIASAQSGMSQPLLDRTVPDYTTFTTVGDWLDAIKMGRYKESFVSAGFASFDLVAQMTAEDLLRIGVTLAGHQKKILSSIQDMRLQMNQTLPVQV
Serine/threonine-protein kinase 32B (Homo sapiens), sequence (Q9NY57 whole entry): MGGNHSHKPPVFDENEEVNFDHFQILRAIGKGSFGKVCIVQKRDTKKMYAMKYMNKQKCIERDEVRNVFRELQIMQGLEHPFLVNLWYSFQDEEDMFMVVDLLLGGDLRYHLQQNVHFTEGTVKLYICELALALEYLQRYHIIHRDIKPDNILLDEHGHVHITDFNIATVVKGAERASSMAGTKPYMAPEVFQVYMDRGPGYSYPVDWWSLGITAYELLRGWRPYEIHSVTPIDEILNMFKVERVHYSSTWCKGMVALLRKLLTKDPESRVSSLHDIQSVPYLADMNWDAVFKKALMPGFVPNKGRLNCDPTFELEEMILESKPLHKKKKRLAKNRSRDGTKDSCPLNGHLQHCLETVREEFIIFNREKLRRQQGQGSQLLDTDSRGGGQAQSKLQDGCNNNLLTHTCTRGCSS
Angiopoietin-1 receptor (Homo sapiens), sequence (Q02763 whole entry): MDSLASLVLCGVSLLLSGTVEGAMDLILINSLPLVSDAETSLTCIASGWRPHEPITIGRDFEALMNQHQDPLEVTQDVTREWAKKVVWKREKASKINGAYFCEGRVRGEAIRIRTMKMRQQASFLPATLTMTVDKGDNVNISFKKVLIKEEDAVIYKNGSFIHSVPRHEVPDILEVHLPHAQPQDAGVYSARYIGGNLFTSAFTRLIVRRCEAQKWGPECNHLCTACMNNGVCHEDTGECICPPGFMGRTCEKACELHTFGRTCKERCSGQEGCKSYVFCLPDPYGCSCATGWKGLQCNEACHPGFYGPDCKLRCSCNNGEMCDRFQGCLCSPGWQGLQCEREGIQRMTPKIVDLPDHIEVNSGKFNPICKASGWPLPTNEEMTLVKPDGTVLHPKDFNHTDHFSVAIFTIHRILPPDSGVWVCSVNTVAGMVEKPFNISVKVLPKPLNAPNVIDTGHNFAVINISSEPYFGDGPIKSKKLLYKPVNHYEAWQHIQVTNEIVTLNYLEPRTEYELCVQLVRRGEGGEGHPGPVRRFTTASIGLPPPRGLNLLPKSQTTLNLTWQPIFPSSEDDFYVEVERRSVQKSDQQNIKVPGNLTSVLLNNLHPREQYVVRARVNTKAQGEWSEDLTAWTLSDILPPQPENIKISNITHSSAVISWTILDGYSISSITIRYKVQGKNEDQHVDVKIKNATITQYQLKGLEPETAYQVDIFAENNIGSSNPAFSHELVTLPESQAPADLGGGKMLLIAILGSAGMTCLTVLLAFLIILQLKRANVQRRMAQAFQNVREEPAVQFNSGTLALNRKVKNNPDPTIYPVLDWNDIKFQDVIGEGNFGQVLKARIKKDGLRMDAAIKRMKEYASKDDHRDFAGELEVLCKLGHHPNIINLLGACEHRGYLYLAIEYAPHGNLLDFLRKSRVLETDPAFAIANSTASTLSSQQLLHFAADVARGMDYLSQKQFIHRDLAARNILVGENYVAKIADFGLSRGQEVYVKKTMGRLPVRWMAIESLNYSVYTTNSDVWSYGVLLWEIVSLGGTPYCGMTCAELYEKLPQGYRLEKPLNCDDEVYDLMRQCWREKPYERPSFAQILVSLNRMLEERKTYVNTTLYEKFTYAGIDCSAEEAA
Dual specificity tyrosine-phosphorylation-regulated kinase 1B (Homo sapiens), sequence (Q9Y463 whole entry, looked up): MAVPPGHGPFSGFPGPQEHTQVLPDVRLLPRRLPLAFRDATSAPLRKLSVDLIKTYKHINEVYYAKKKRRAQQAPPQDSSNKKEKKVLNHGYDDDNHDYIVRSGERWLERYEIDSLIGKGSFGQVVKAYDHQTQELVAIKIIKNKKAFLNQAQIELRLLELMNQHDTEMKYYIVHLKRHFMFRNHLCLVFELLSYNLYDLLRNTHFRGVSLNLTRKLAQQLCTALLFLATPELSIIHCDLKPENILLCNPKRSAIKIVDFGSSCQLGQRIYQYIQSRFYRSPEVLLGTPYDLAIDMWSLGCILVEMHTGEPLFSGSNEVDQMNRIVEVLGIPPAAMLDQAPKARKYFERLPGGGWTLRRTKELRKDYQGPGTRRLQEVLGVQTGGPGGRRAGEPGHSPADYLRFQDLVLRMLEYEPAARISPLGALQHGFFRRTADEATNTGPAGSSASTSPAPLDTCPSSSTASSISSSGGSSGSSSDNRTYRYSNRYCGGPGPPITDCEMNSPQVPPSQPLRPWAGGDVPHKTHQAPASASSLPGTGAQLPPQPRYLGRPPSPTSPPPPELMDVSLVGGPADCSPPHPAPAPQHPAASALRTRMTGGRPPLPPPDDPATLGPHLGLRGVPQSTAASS

Structure (SMILES): CCN1CCN(Cc2ccc(NC(=O)c3ccc(C)c(C#Cc4cccnc4)c3)cc2C(F)(F)F)CC1
- residual binding, % of control [1]: 99%
- residual binding, % of control [2]: 0.05%
- residual binding, % of control [3]: 0%
- residual binding, % of control [4]: 0%
- residual binding, % of control [5]: 81%
- residual binding, % of control [6]: 94%
- residual binding, % of control [7]: 47%
- residual binding, % of control [8]: 0.25%
- residual binding, % of control [9]: 0.05%
- residual binding, % of control [10]: 0.05%
- residual binding, % of control [11]: 27%
- residual binding, % of control [12]: 0%
- residual binding, % of control [13]: 43%
- inhibition [14]: 0%
- inhibition [15]: 87%
- inhibition [16]: 0%
- inhibition [17]: 0.4%
- residual binding, % of control [18]: 24%
- residual binding, % of control [19]: 100%
- residual binding, % of control [20]: 75%
- residual binding, % of control [21]: 0.1%
- residual binding, % of control [22]: 0.4%
- inhibition [23]: 100%
- inhibition [24]: 100%
- inhibition [25]: 76%
- inhibition [26]: 100%
- inhibition [27]: 58%
- inhibition [28]: 67%
- inhibition [29]: 30%
- inhibition [30]: 6.8%
- inhibition [31]: 21%
- level, % of control [32]: 2%
- % of control [33]: 0.45%
- level, % of control [34]: 8.2%
- level, % of control [35]: 0.05%
- % of control [36]: 3.3%
- % of control [37]: 0.2%
- % of control [38]: 0.05%
- level, % of control [39]: 0.35%
- % of control [40]: 87%
- level, % of control [41]: 0.5%

Structure (SMILES): CCN1CCN(Cc2ccc(NC(=O)c3ccc(C)c(C#Cc4cnc5[nH]ccc5c4)c3)cc2C(F)(F)F)CC1
- residual binding, % of control [1]: 59%
- residual binding, % of control [2]: 0.2%
- residual binding, % of control [3]: 0%
- residual binding, % of control [4]: 0.05%
- residual binding, % of control [5]: 41%
- residual binding, % of control [6]: 78%
- residual binding, % of control [7]: 15%
- residual binding, % of control [8]: 2.7%
- residual binding, % of control [9]: 0.15%
- residual binding, % of control [10]: 0.15%
- residual binding, % of control [11]: 24%
- residual binding, % of control [12]: 0%
- residual binding, % of control [13]: 25%
- inhibition [14]: 0.6%
- inhibition [15]: 73%
- inhibition [16]: 0.2%
- inhibition [17]: 0.15%
- residual binding, % of control [18]: 38%
- residual binding, % of control [19]: 100%
- residual binding, % of control [20]: 83%
- residual binding, % of control [21]: 0.1%
- residual binding, % of control [22]: 0.25%
- inhibition [23]: 100%
- inhibition [24]: 85%
- inhibition [25]: 76%
- inhibition [26]: 100%
- inhibition [27]: 7.7%
- inhibition [28]: 79%
- inhibition [29]: 87%
- inhibition [30]: 29%
- inhibition [31]: 18%
- level, % of control [32]: 1.2%
- % of control [33]: 0.25%
- level, % of control [34]: 18%
- level, % of control [35]: 0%
- % of control [36]: 1.1%
- % of control [37]: 0.25%
- % of control [38]: 0%
- level, % of control [39]: 0.3%
- % of control [40]: 24%
- level, % of control [41]: 0.3%
